From paper PMC6158189, “A pharmacological probe identifies cystathionine β-synthase as a new negative regulator for ferroptosis” (Cell Death & Disease, 2018)

Legend:
[1] = target: T1, endogenous hCBS in HepG2 cells (Homo sapiens, UniProt P35520); assay: endogenous H2S in HepG2 cells (AzMC probe); assay type: cell-based; conditions: 8 h, HepG2
T1 construct: effects of CH004 on the activity of endogenous CBS by incubating with HepG2; endogenous in cells; host or cells: HepG2
T1 sequence (P35520 1-551): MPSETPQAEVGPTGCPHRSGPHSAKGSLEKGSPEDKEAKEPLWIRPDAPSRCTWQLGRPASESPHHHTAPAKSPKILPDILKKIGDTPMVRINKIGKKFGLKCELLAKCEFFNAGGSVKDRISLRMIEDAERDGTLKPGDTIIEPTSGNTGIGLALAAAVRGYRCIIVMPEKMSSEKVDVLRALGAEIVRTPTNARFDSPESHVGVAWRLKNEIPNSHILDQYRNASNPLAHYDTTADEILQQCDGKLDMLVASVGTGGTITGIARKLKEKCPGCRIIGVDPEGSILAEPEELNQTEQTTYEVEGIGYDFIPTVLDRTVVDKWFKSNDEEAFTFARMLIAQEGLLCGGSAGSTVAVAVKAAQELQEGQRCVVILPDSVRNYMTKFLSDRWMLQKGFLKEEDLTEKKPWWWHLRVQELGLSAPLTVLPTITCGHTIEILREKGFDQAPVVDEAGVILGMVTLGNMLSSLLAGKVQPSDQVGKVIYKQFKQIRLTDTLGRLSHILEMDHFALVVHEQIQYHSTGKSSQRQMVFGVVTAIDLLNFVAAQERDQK
Description: Fig. 3 The effect of CH004 on the activity of endogenous hCBS in cells. a CH004 dose-dependently elevates the levels of Hcys in HepG2 and HEK293T cells. HepG2 cells or HEK293T cells were incubated with indicated CH004 or DMSO (control) for 12 h. The amount of total Hcys in cells was measured by ELISA using Axis® Homocysteine EIA kit (IBL, AX51301) (“Materials and Methods” section). […] HepG2 cells were treated with indicated DMSO, CH004 or HA for 8 h before the staining with AzMC probe. The amount of the H2S (blue) was quantified and is shown in (c). Bars, 50 μm. Control (CTR), DMSO group (100%). A representative fluorescence image from three independent experiments is shown. Means ± SDS (n = 3). d CH004 elevates Hcys in the peripheral blood of rats. The total Hcys of the blood samples collected from the anesthetized rats at the 75 min time point (Materials and Methods) were quantified by ELISA (see above). Means ± SDS (n = 6).
(§1) H2S levels in living cells were detected using a H2S-specific fluorescent probe according to a protocol described previously[31],[55]. To measure H2S in transiently transfected HEK293T cells, the cells were seeded on poly-D-Lys-coated coverslips (Thermo Scientific, Waltham, MA, USA) in 12-well plates at a density of ~ 1 × 10^5 cells per well, and hCBS or hCSE plasmids were transiently transfected by X-tremeGENE HP DNA Transfection Reagent according to the manufacturer’s protocol (Roche, Basel, Switzerland). After 24 h, the transfected cells were treated with DMSO or inhibitors for another 8 h, followed by staining with 7-azide-4-methylcoumarin (AzMC; Sigma-Aldrich). Similarly, HEK293T cells stably expressing CBS WT, Q222A mutant or EV were seeded on poly-D-Lys-coated coverslips in 12-well plates for one day before treatment with DMSO or inhibitors for 8 h. After incubation with 50 μM AzMC at 37 °C for 30 min, the cells were washed 4 times with PBS, and the fluorescent images were recorded with excitation by 405 nm laser by using a A1Si (Nikon) confocal microscope. The intensity of the blue fluorescent signals, indicating the amount of H2S, was quantified by ImageJ software (NIH, Bethesda, ML). The H2S signal was then corrected for the background signal detected in HEK293T cells transiently or stably expressing of empty vector (HEK293T-EV) and normalized by the corresponding cell-occupying area and compared with the control (DMSO group, 100%). Similarly, the H2S signal in HepG2 cells was quantified by AzMC staining, corrected for the background signal outside the cells, normalized by the cell area and expressed as percentages of DMSO control (100%).
To elucidate the subcellular localization of H2S, HepG2 cells were seeded on poly-D-Lys-coated coverslips in 12-well plates. After treatment with DMSO or inhibitors for 8 h, cells were sequentially incubated with 200 nM Mito-Tracker® Green and 50 μM AzMC for 30 min at 37 °C in PBS, and then fluorescent images were taken using a confocal microscope.
Figure S9. The effect of AOAA on the level of endogenous H2S in HepG2 cells. […] HepG2 cells were incubated with 0 (DMSO control), 1, 5 or 10 mM AOAA for 8 h before staining with 50 μM AzMC. Upper panels, the overlaid images; middle panels, the corresponding fluorescent images (blue, H2S); the lower panels, the bright-field images. Bars: 50 μm. (B) Quantification of the mean fluorescent density of H2S (blue). The intensity of H2S was accordingly quantified and normalized by correcting for the background signal outside cells. Data was expressed as percentages of the control (DMSO group, 100%). Means ± SDs (n=3). One-way ANOVA with Bonferroni post-tests was used for the analysis. *, p< 0.05; ***, p< 0.001; n.s. no significance. The images are one representative from three independent experiments.

[2] = target: T2, hCBS-FL wild type (293T-CBS WT) (Homo sapiens, UniProt P35520); assay: H2S in HEK293T cells stably expressing hCBS WT (AzMC probe); assay type: cell-based; conditions: 8 h
T2 construct: human CBS or hCSE full-length (CBS-FL or CSE) was subcloned into pGEX-KG, pcDNA3 or pCDH vector; expressed in transfected cells
T2 sequence (P35520 1-551): T1 sequence (P35520 1-551)
Description: HEK293T cells were transiently transfected with empty vector (EV, i and ii), hCBS-FL (iii and iv) or hCSE (v and vi) plasmids, followed by incubation with DMSO (i–iii and v) or 10 μM CH004 (iv and vi) for 8 h before staining with 50 μM AzMC, a H2S-specific probe (“Materials and Methods” section). For larger fluorescent and bright-field images, please see Supplementary Figure 4. The expression levels of hCBS or hCSE in HEK293T cells after transient transfections were determined by western blotting using an anti-CBS antibody (3E1, 1:2000; Abnova) or anti-CSE antibody (1:500, GeneTex). The densities of protein bands for hCBS or hCSE in the blots were quantified with the ImageJ software (National Institutes of Health, Bethesda, MD, USA) and expressed as ratios of respective control (EV group). All immunoblots are representative of at least two independent experiments using GAPDH as the loading control. The fluorescent images of the H2S (blue) were accordingly quantified (“Materials and Methods” section) with ImageJ. […] The DMSO groups of the controls (CTR), which are expressing of hCBS or hCSE, were normalized to 100% and the levels of H2S in CH004-treated or EV group are shown as relative percentages. c, d CH004 dose-dependently suppresses the activity of hCBS WT without affecting the activity of CH004-insensitive mutant. HEK293T cells stably expressing EV (i and ii), hCBS-FL wild type (293T-CBS WT; iii–v) or CBS-FL mutant (293T-CBS Q222A, vi–viii) were treated with DMSO (i–iii and vi), 5 μM CH004 (iv, vii) or 10 μM CH004 (v, viii) for 8 h before staining with the AzMC. For larger fluorescent and bright-field images, please see Supplementary Figures 5–6. […] The DMSO groups of the controls (CTR), which are expressing of hCBS-FL wt or Q222A mutant, were normalized to 100% and the levels of H2S in CH004-treated or EV group are shown as relative percentages. A representative fluorescence image from three independent experiments is shown. Means ± SDS (n = 3). Statistical analyses were performed on the raw data for each group by one-way (b) or two-way (d) ANOVA with Bonferroni post-tests. ***p < 0.001. Bars, 50 μm
as §1, with “After 24 h, the transfected cells were treated with DMSO or inhibitors for another 8 h, followed by staining with 7-azide-4-methylcoumarin (AzMC; Sigma-Aldrich). Similarly, HEK293T cells stably expressing CBS WT, Q222A mutant or EV were seeded on poly-D-Lys-coated coverslips in 12-well plates for one day before treatment with DMSO or inhibitors for 8 h.” left out, “(100%). […]” for “(100%).”

[3] = tested on: H22 mouse liver tumor cells in ICR mice; conditions: 20 mg/kg/day i.v.
Description: Fig. 7 CH004 suppresses tumor growth in vivo. a–c CH004 reduces the growth rate of tumors in liver tumor xenograft mice model. Mice bearing liver tumor xenografts were treated with CH004 (10 mg/kg/d), cyclophophamide (CTX, 20 mg/kg/d) or PBS (Vehicle) for 21 days. The tumor volumes were measured every two days during day 6 to day 22 and the data was presented in a (n = 8). […] Mice body weight was measured along with the measurement of tumor volume (n = 8). Means ± SDS. Statistical analyses were performed on the raw data by one-way (c) or two-way ANOVA (a) with Bonferroni post-tests. The significance of the CH004-treated group compared to Vehicle was indicated with $ (a), whereas the comparison of the CTX group to Vehicle was with # (a). $, # or ***p < 0.001
The in vivo effect of CH004 on tumor growth was evaluated in a xenograft mice model of liver cancer. The experiment was independently performed by Jiangsu KeyGEN BioTECH Co. LTD (Jiangsu, China) and followed the standard procedures that were established and approved by the local Animal Care and Use Committee. Briefly, H22 mouse liver tumor cells were intraperitoneal injected into female ICR mice (SLAC Laboratory Animal Co. Ltd, Shanghai, China). 8 days later, mice with distended abdomen were killed, and the ascites was collected, washed and resuspended with PBS. 0.1 ml cell suspension with a density of 1 × 10^7/ml was subcutaneously injected into the right dorsum of ICR female mice (~20 g). The mice bearing H22 tumor cells were then randomized into groups (n = 8) on the following day after the implantation. Then, the mice were injected via a tail vein (i.v.) with PBS, CH004 (10 mg/kg) or cyclophosphamide (CTX, a known anticancer drug; 20 mg/kg) once per day and for 21 days. Tumor sizes were measured every 2 days starting from the day 6 using a caliper, and tumor volume was calculated using the formula V = length × width^2 × π / 6. The body weights of mice were recorded under the same conditions. The mice were sacrificed on day 22, and the tumors were taken out and weighted.

SMILES | effect on production of H2S ([1]; 1 mM) | decrease in cellular H2S ([1]; 10 mM) [%] | production of endogenous H2S ([1]; 1, 5 or 10 mM) | effect on production of H2S ([2]; 1 mM, HEK293T stably expressing hCBS) | decrease in cellular H2S ([2]; 10 mM, HEK293T stably expressing hCBS) [%] | H2S production ([2]; 1, 5 or 10 mM, 293T-CBS WT) | reduction of tumor volume or weight ([3]; 21-day treatment) | effect on total body weight ([3]; 21 days)
NOCC(=O)O [AOAA, aminooxyacetic acid, reference compound] | cannot suppress | ≤ 30 | impotently decreases | cannot suppress | ≤ 30 | weakly inhibits |  | 
O=P1(N(CCCl)CCCl)NCCCO1 (centres unmarked) [CTX, cyclophosphamide, reference compound] |  |  |  |  |  |  | more than half | did not substantially affect
